# In patent US6737383B1, “Herbicidal oxadiazolidines” (priority 1999, dated 2004):
# How the values were obtained:
# [1] = test system: cocklebur; experiment: Test B pre/postemergence cocklebur; assay type: in vivo, Xanthium strumarium
# Outline: (§1)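 Test chemicals in a non-phytotoxic solvent mixture with surfactant were sprayed preemergence onto planted seeds and postemergence onto plants 2 to 18 cm tall (1- to 4-leaf stage). After twelve to sixteen days in a greenhouse, injury was visually rated against untreated controls from 0 (no effect) to 10 (complete control).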
# [2] = test system: purple nutsedge; experiment: Test B pre/postemergence purple nutsedge; assay type: in vivo, Cyperus rotundus
# Outline: as §1
# [3] = test system: crabgrass; experiment: Test B pre/postemergence crabgrass; assay type: in vivo, Digitaria sanguinalis
# Outline: as §1
# [4] = test system: blackgrass; experiment: Test B pre/postemergence blackgrass; assay type: in vivo, Alopecurus myosuroides
# Outline: as §1
# [5] = test system: wheat; experiment: Test B pre/postemergence wheat; assay type: in vivo, Triticum aestivum
# Outline: as §1
# [6] = test system: bedstraw; experiment: Test B pre/postemergence bedstraw; assay type: in vivo, Galium aparine
# Outline: as §1
# [7] = test system: corn; experiment: Test B pre/postemergence corn; assay type: in vivo, Zea mays
# Outline: as §1
# [8] = test system: rape; experiment: Test B pre/postemergence rape; assay type: in vivo, Brassica napus
# Outline: as §1
# [9] = test system: wild oat; experiment: Test B pre/postemergence wild oat; assay type: in vivo, Avena fatua
# Outline: as §1
# [10] = test system: soybean; experiment: Test B pre/postemergence soybean; assay type: in vivo, Glycine max
# Outline: as §1
# [11] = test system: velvetleaf; experiment: Test B pre/postemergence velvetleaf; assay type: in vivo, Abutilon theophrasti
# Outline: as §1
# [12] = test system: surinam grass; experiment: Test B pre/postemergence surinam grass; assay type: in vivo, Brachiaria decumbens
# Outline: as §1
# [13] = test system: sugar beet; experiment: Test B pre/postemergence sugar beet; assay type: in vivo, Beta vulgaris
# Outline: as §1
# [14] = Postemergence, Rate 125 g/ha, scale of 0 to 10 where 0 is no effect and 10 is complete control
# [15] = Preemergence, Rate 62 g/ha, scale of 0 to 10 where 0 is no effect and 10 is complete control
# [16] = Preemergence, Rate 125 g/ha, 0 is no effect, 10 is complete control
# [17] = Preemergence, Rate 500 g/ha, scale 0 to 10 (0 no effect, 10 complete control)
# [18] = Rate 62 g/ha, Postemergence, scale of 0 to 10 where 0 is no effect and 10 is complete control
# [19] = Rate 250 g/ha, Postemergence, scale 0 to 10, 0 is no effect, 10 is complete control
# [20] = Rate 500 g/ha, Postemergence, scale 0 to 10
# [21] = Preemergence, Rate 250 g/ha, scale 0 to 10, 0 is no effect, 10 is complete control
smiles,measurement,setting,value
CC(C)N(C(=O)n1oc(=O)n(CC(F)(F)F)c1=O)c1ccc(F)cc1 [Compound 163],Cocklebur plant response rating,[1]; [14],0
same,Cocklebur plant response rating,[1]; [15],0
same,Cocklebur plant response rating (0 to 10 scale),[1]; [16],0
same,Cocklebur plant response rating,[1]; [17],0
same,Cocklebur plant response rating,[1]; [18],0
same,"Plant response rating, Cocklebur",[1]; [19],3
same,Cocklebur plant response rating,[1]; [20],3
same,Nutsedge plant response rating,[2]; [14],0
same,Nutsedge plant response rating,[2]; [15],0
same,Nutsedge plant response rating (0 to 10 scale),[2]; [16],0
same,Nutsedge plant response rating,[2]; [21],0
same,Nutsedge plant response rating,[2]; [17],0
same,Nutsedge plant response rating,[2]; [18],0
same,"Plant response rating, Nutsedge",[2]; [19],0
same,Nutsedge plant response rating,[2]; [20],3
same,Crabgrass plant response rating,[3]; [14],7
same,Crabgrass plant response rating,[3]; [15],8
same,Crabgrass plant response rating,[3]; [21],8
same,Crabgrass plant response rating,[3]; [17],9
same,Crabgrass plant response rating,[3]; [18],6
same,"Plant response rating, Crabgrass",[3]; [19],8
same,Crabgrass plant response rating,[3]; [20],9
same,Blackgrass plant response rating,[4]; [14],4
same,Blackgrass plant response rating,[4]; [15],7
same,Blackgrass plant response rating (0 to 10 scale),[4]; [16],7
same,Blackgrass plant response rating,[4]; [21],10
same,Blackgrass plant response rating,[4]; [17],10
same,Blackgrass plant response rating,[4]; [18],2
same,"Plant response rating, Blackgrass",[4]; [19],6
same,Blackgrass plant response rating,[4]; [20],8
same,Wheat plant response rating,[5]; [15],0
same,Wheat plant response rating (0 to 10 scale),[5]; [16],2
same,Wheat plant response rating,[5]; [21],2
same,Wheat plant response rating,[5]; [17],4
same,"Plant response rating, Wheat",[5]; [19],2
same,Wheat plant response rating,[5]; [20],5
same,Bedstraw plant response rating,[6]; [14],4
same,Bedstraw plant response rating,[6]; [15],0
same,Bedstraw plant response rating (0 to 10 scale),[6]; [16],0
same,Bedstraw plant response rating,[6]; [21],4
same,Bedstraw plant response rating,[6]; [17],4
same,Bedstraw plant response rating,[6]; [18],0
same,"Plant response rating, Bedstraw",[6]; [19],7
same,Bedstraw plant response rating,[6]; [20],9
same,Corn plant response rating,[7]; [14],0
same,Corn plant response rating,[7]; [15],0
same,Corn plant response rating (0 to 10 scale),[7]; [16],0
same,Corn plant response rating,[7]; [21],0
same,Corn plant response rating,[7]; [17],2
same,Corn plant response rating,[7]; [18],0
same,"Plant response rating, Corn",[7]; [19],0
same,Corn plant response rating,[7]; [20],0
same,Rape plant response rating,[8]; [14],0
same,Rape plant response rating,[8]; [15],0
same,Rape plant response rating (0 to 10 scale),[8]; [16],0
same,Rape plant response rating,[8]; [21],7
same,Rape plant response rating,[8]; [17],8
same,Rape plant response rating,[8]; [18],0
same,"Plant response rating, Rape",[8]; [19],2
same,Rape plant response rating,[8]; [20],4
same,Wild oats plant response rating,[9]; [15],3
same,Wild oats plant response rating (0 to 10 scale),[9]; [16],3
same,Wild oats plant response rating,[9]; [21],7
same,Wild oats plant response rating,[9]; [17],10
same,"Plant response rating, Wild oats",[9]; [19],3
same,Wild oats plant response rating,[9]; [20],3
same,Soybean plant response rating,[10]; [14],2
same,Soybean plant response rating,[10]; [15],0
same,Soybean plant response rating (0 to 10 scale),[10]; [16],0
same,Soybean plant response rating,[10]; [21],0
same,Soybean plant response rating,[10]; [17],0
same,Soybean plant response rating,[10]; [18],2
same,"Plant response rating, Soybean",[10]; [19],3
same,Soybean plant response rating,[10]; [20],3
same,Velvetleaf plant response rating,[11]; [15],0
same,Velvetleaf plant response rating (0 to 10 scale),[11]; [16],2
same,Velvetleaf plant response rating,[11]; [21],5
same,Velvetleaf plant response rating,[11]; [17],5
same,"Plant response rating, Velvetleaf",[11]; [19],6
same,Velvetleaf plant response rating,[11]; [20],6
same,B. signalgrass plant response rating,[12]; [14],2
same,B. signalgrass plant response rating,[12]; [15],0
same,B. signalgrass plant response rating (0 to 10 scale),[12]; [16],2
same,B. signalgrass plant response rating,[12]; [21],2
same,B. signalgrass plant response rating,[12]; [17],2
same,B. signalgrass plant response rating,[12]; [18],0
same,"Plant response rating, B. signalgrass",[12]; [19],5
same,B. signalgrass plant response rating,"[12]; Rate 500 g/ha, Postemergence, scale 0 to 10, 0 no effect, 10 complete control",6
same,Sugarbeets plant response rating,[13]; [14],0
same,Sugarbeets plant response rating,[13]; [15],0
same,Sugarbeets plant response rating (0 to 10 scale),[13]; [16],3
same,Sugarbeets plant response rating,[13]; [21],4
same,Sugarbeets plant response rating,[13]; [17],6
same,Sugarbeets plant response rating,[13]; [18],0
same,"Plant response rating, Sugarbeets",[13]; [19],4
same,Sugarbeets plant response rating,[13]; [20],5
